According to US20030003088A1, “Human pancreatic pluripotential stem cell line” (Board of Trustees operating Michigan State University, priority 2001, published 2003):
Entries after “also recorded” stand apart in the source; their conditions may differ.

Columns and labels:
[1] = system: insulin promoter in HPDE6c7 cells; experiment: Insulin promoter activity, AdINSGFP (GFP under insulin promoter) infected cells; assay type: cell-based, human
Experimental: To determine whether the insulin promoter in the HPDE6c7 cells is active, the cells were infected with adenovirus AdINSGFP, a virus vector that expresses the Green Fluorescence Protein (GFP) under the regulation of the insulin promoter.
Nicotinamide is known to affect cell differentiation. Therefore, the effect of nicotinamide on the activity of the insulin promoter in HPDE6c7 cells was determined. The […] cells were plated on plastic cell culture dishes for two days. Then the cells were infected with about 50 pfu/cell AdINSGFP for one hour. Afterwards, the cells were washed and incubated for three days in KBM containing 10 mM nicotinamide.

[2] = system: HPDE6c7 cells; experiment: Induction of insulin production / release into the media; assay type: cell-based, human; conditions: for synthesis and release of insulin / appearance of insulin in the media: preliminary data
[3] = system: HPDE6c7 cells; experiment: Assay (A): inhibition of forskolin-induced GJIC, Lucifer yellow dye transfer, PAH given at every medium change; assay type: cell-based, human; conditions: for GJIC, Average (% change over control at −30 min), −30 min / GJIC, Average (% change over control at −30 min), 0 hr / GJIC, Average (% change over control at −30 min), 24 hr / GJIC, Average (% change over control at −30 min), 48 hr / GJIC, Average (% change over control at −30 min), 72 hr: 70 μM PAH given at every medium change; for GJIC, Average (% change over control at −30 min), −30 min: at time of addition; for GJIC, Average (% change over control at −30 min), 0 hr / GJIC, Average (% change over control at −30 min), 24 hr / GJIC, Average (% change over control at −30 min), 48 hr / GJIC, Average (% change over control at −30 min), 72 hr: forskolin 5 μM; for inhibition of GJIC induced by forskolin: 70 μM, PAH at every medium change
[4] = system: HPDE6c7 cells; experiment: Assay (B): inhibition of forskolin-induced GJIC, Lucifer yellow dye transfer, PAH given only at time −30 min; conditions: for GJIC, Average (% change over control at −30 min), −30 min / GJIC, Average (% change over control at −30 min), 0 hr / GJIC, Average (% change over control at −30 min), 24 hr / GJIC, Average (% change over control at −30 min), 48 hr / GJIC, Average (% change over control at −30 min), 72 hr: 70 μM PAH given at time −30 min only; for GJIC, Average (% change over control at −30 min), −30 min: at time of addition; for GJIC, Average (% change over control at −30 min), 0 hr / GJIC, Average (% change over control at −30 min), 24 hr / GJIC, Average (% change over control at −30 min), 48 hr / GJIC, Average (% change over control at −30 min), 72 hr: forskolin 5 μM
[5] = system: HPDE6c7 cells; experiment: Growth of cells in culture with growth factors; assay type: cell-based, human
[6] = system: HPDE6c7 cells; experiment: GJIC competence under c-AMP elevating agents, Lucifer yellow dye transfer; assay type: cell-based, human; conditions: in KBM, 48 hours
Experimental: The ability of the HPDE6c7 cells to communicate via gap junctions under various growth conditions was measured using the lucifer yellow dye transfer method as developed by El-Fouly et al. (Exp. Cell Res. 168: 422-430 (1987)). Briefly, near confluent cultures of the cells grown as in Example 1 were subjected to the desired treatment, either growth in KBM or KBM containing c-AMP elevating agents such as forskolin or forskolin and 3-isobutyl-1-methylxanthine (IBMX), both from Sigma Chemical Co., St. Louis, Mo. Then, lucifer yellow was loaded into the cells by making two or three scrape lines in the monolayer with a sharp scalpel. […] Quantifying the extent of communication was done using an image analysis program.

sonic hedgehog
turning on the promoter for the insulin gene [1]: can turn on the promoter for the insulin gene
induction of insulin production [2]: induce the HPDE6c7 cells to produce insulin

Cc1cccc2cc3ccccc3cc12 [1-MeA, 1-methylanthracine]
GJIC, Average (% change over control at −30 min), −30 min [3]: 100.00%
GJIC, Average (% change over control at −30 min), 0 hr [3]: 89.37%
GJIC, Average (% change over control at −30 min), 24 hr [3]: 92.24%
GJIC, Average (% change over control at −30 min), 48 hr [3]: 81.77%
GJIC, Average (% change over control at −30 min), 72 hr [3]: 212.39%
inhibition of GJIC induced by forskolin [3]: inhibited GJIC that had been induced by forskolin
GJIC, Average (% change over control at −30 min), −30 min [4]: 100.00%
GJIC, Average (% change over control at −30 min), 0 hr [4]: 77.04%
GJIC, Average (% change over control at −30 min), 24 hr [4]: 233.32%
GJIC, Average (% change over control at −30 min), 48 hr [4]: 246.93%
GJIC, Average (% change over control at −30 min), 72 hr [4]: 261.32%
lethal effects on the cells / cytotoxicity ([4]; 70 μM, PAH at −30 min only): no lethal effects; also recorded: not cytotoxic
reversibility of the inhibition of GJIC ([4]; 70 μM, PAH at −30 min only): reversible

NC(=O)c1cccnc1 [nicotinamide]
activation of the insulin promoter (GFP expressing cells) ([1]; 10 mM in KBM, three days): induces a substantial number of cells to activate the insulin promoter
induction of insulin production [2]: induce the HPDE6c7 cells to produce insulin
synthesis and release of insulin / appearance of insulin in the media [2]: appear to synthesize and release insulin

Cc1ccc2cc3ccccc3cc2c1 [2-MeA, 2-methylanthracine]
GJIC, Average (% change over control at −30 min), −30 min [3]: 100.00%
GJIC, Average (% change over control at −30 min), 0 hr [3]: 102.06%
GJIC, Average (% change over control at −30 min), 24 hr [3]: 197.60%
GJIC, Average (% change over control at −30 min), 48 hr [3]: 227.15%
GJIC, Average (% change over control at −30 min), 72 hr [3]: 271.19%
inhibition of GJIC induced by forskolin [3]: did not
GJIC, Average (% change over control at −30 min), −30 min [4]: 100.00%
GJIC, Average (% change over control at −30 min), 0 hr [4]: 89.95%
GJIC, Average (% change over control at −30 min), 24 hr [4]: 265.70%
GJIC, Average (% change over control at −30 min), 48 hr [4]: 260.89%
GJIC, Average (% change over control at −30 min), 72 hr [4]: 260.89%

hepatocyte growth factor: growth factor (mitogen)
synthesis and release of insulin / appearance of insulin in the media [2]: appear to synthesize and release insulin
growth of the cells [5]: an increase in growth of the cells

C=C[C@@]1(C)CC(=O)[C@]2(O)[C@@]3(C)[C@@H](O)CCC(C)(C)[C@@H]3[C@H](O)[C@H](OC(C)=O)[C@@]2(C)O1 [forskolin]
increase in GJIC relative to complete keratinocyte serum-free medium (KSFM) [6]: 2.2 fold

cholera toxin
induction of insulin production [2]: induce the HPDE6c7 cells to produce insulin

B1: beta-cellulin: growth factor (mitogen) (protein, UniProt P35070 32-111, looked up)
Betacellulin: DGNSTRSPETNGLLCGDPEENCAATTTQSKRKGHFSRCPKQYKHYCIKGRCRFVVAEQTPSCVCDEGYIGARCERVDLFY
growth of the cells [5]: an increase in growth of the cells
